Where two headings read alike, the source gives them in different places.
Assays:
human recombinant MAO-B = target: T1, human recombinant MAO-B (Homo sapiens, UniProt P27338); experiment: kynuramine oxidation deamination assay, MAO-B inhibition (IC50); assay type: biochemical; parameters: purchased BD Biosciences (Bedford, MA, USA); conditions: for Selectivity Index MAO-A/B: ratio of IC50 MAO-A / MAO-B; for IC50: recombinant human MAO-B, kynuramine 50 μM, mean ± S.D. of triplicate
T1 sequence (P27338 1-520): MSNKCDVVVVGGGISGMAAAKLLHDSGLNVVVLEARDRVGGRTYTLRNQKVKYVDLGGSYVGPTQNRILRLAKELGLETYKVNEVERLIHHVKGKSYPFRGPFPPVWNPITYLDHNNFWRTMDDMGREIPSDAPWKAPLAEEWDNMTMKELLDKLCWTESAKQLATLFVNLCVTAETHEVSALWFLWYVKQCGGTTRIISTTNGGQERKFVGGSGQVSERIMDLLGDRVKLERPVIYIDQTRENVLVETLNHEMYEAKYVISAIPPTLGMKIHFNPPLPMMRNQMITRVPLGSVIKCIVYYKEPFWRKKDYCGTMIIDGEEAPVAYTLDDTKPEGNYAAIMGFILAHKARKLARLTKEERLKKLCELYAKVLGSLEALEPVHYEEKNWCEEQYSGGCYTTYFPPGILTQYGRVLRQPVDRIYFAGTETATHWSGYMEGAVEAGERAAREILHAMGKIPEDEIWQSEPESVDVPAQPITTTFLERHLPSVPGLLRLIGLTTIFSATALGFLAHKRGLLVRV
Experimental: A fixed single concentration of kynuramine substrate and varying concentrations of the test inhibitor were used to determine the IC50 values. […] These concentrations of kynuramine were twice the apparent KM value for substrate binding. […] Enzymatic reactions were performed in 50 μL of the assay mixture containing 0.1 M potassium phosphate buffer, pH 7.4. […] Reactions were initiated by the addition of 12.50 μL of MAO-A (to 5 μg/mL) or -B (to 10 μg/mL). The plate was incubated for 20 min at 37 °C, and the enzymatic reaction was terminated by the addition of 18.8 μL of 2N NaOH. Formation of the enzyme product, 4-hydroxyquinoline, was measured fluorometrically using a SpectraMax M5 fluorescence plate reader (Molecular Devices, Sunnyvale, CA, USA) with excitation (320 nm) and emission (380 nm) wavelengths and the Soft Max Pro program. The inhibition effects of enzyme activity were calculated as percent of product formation compared to the corresponding control (enzyme–substrate reaction) without inhibitors. Controls included the assays where the enzyme or the substrate was added after terminating the reaction to determine the interference with the fluorescence measurements. The IC50 values for MAO-A and -B inhibition were calculated from the concentration-dependent inhibition curves using XLFit® software.

human recombinant MAO-A = target: T2, human recombinant MAO-A (Homo sapiens, UniProt P21397); experiment: kynuramine oxidation deamination assay, MAO-A inhibition (IC50); assay type: biochemical; conditions: kynuramine 80 μM, mean ± S.D. of triplicate
T2 construct: purchased BD Biosciences (Bedford, MA, USA)
T2 sequence (P21397 1-527): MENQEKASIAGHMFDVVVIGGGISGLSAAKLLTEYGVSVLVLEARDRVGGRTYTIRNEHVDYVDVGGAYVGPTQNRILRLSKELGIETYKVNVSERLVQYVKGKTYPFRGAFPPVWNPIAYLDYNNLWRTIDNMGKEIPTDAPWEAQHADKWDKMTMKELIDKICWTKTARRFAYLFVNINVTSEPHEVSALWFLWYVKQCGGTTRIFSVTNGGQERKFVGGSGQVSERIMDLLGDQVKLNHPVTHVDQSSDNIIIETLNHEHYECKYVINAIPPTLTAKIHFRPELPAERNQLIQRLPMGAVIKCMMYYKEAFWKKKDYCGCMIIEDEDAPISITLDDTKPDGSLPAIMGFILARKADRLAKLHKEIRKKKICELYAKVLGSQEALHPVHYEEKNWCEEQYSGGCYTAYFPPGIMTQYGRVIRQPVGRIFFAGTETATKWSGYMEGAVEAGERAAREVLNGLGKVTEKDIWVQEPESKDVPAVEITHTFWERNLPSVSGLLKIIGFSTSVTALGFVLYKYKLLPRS
Experimental: A fixed single concentration of kynuramine substrate and varying concentrations of the test inhibitor were used to determine the IC50 values. The kynuramine concentrations for MAO-A and -B were 80 μM and 50 μM, respectively. These concentrations of kynuramine were twice the apparent KM value for substrate binding. […] Enzymatic reactions were performed in 50 μL of the assay mixture containing 0.1 M potassium phosphate buffer, pH 7.4. […] Reactions were initiated by the addition of 12.50 μL of MAO-A (to 5 μg/mL) or -B (to 10 μg/mL). The plate was incubated for 20 min at 37 °C, and the enzymatic reaction was terminated by the addition of 18.8 μL of 2N NaOH. Formation of the enzyme product, 4-hydroxyquinoline, was measured fluorometrically using a SpectraMax M5 fluorescence plate reader (Molecular Devices, Sunnyvale, CA, USA) with excitation (320 nm) and emission (380 nm) wavelengths and the Soft Max Pro program. The inhibition effects of enzyme activity were calculated as percent of product formation compared to the corresponding control (enzyme–substrate reaction) without inhibitors. Controls included the assays where the enzyme or the substrate was added after terminating the reaction to determine the interference with the fluorescence measurements. The IC50 values for MAO-A and -B inhibition were calculated from the concentration-dependent inhibition curves using XLFit® software.

human recombinant MAO B = conditions: cited from earlier work
human recombinant MAO A = conditions: cited from earlier work

Row | Selectivity Index MAO-A/B (human recombinant MAO-B) | IC50 (human recombinant MAO-B) [µM] | IC50 (human recombinant MAO-A) [µM] | SMILES | also measured
1 | 3.1 | 12.7 ± 0.29 | 39.1 ± 5.14 | COc1cc(OC)c2c(=O)cc(-c3ccc(NCC4CC4)cc3)oc2c1 [Compound 8c, 2-(4-((Cyclopropylmethyl)amino)phenyl)-5,7-dimethoxy-4H-chromen-4-one] | 
2 | 3.1 | 28.4 ± 2.64 | 87.8 ± 5.45 | COc1cc(OC)c2c(=O)cc(-c3ccc(Br)cc3)oc2c1 [Compound 6b, 2-(4-Bromophenyl)-5,7-dimethoxy-4H-chromen-4-one] | 
3 | 97.1 | 0.417 ± 0.012 | 40.5 ± 2.37 | COc1cc(O)c2c(=O)cc(-c3ccc(NC(C)C)cc3)oc2c1 [Compound 7d, 5-Hydroxy-2-(4-(Isopropylamino)phenyl)-7-methoxy-4H-chromen-4-one] | 
4 | >4.5 | 22.1 ± 2.48 | > 100 | CCCNc1ccc(-c2cc(=O)c3c(OC)cc(OC)cc3o2)cc1 [Compound 6c, 5,7-Dimethoxy-2-(4-(propylamino)phenyl)-4H-chromen-4-one] | 
5 | 4.0 | 9.45 ± 0.113 | 37.5 ± 0.476 | COc1cc(OC)c2c(=O)cc(-c3ccc(NC(C)C)cc3)oc2c1 [Compound 7c, 2-(4-(Isopropylamino)phenyl)-5,7-dimethoxy-4H-chromen-4-one] | 
6 | 17.9 | 2.19 ± 0.088 | 39.1 ± 0.555 | COc1cc(O)c2c(=O)cc(-c3ccc(NCC4CC4)cc3)oc2c1 [Compound 8d, 2-(4-((Cyclopropylmethyl)amino)phenyl)-5-hydroxy-7-methoxy-4H-chromen-4-one] | 
7 | 55.0 | 1.55 ± 0.137 | 85.5 ± 1.59 | CCCNc1ccc(-c2cc(=O)c3c(O)cc(OC)cc3o2)cc1 [Compound 6d, 5-Hydroxy-7-methoxy-2-(4-(propylamino)phenyl)-4H-chromen-4-one] | 

More lines, now with the values behind:

Row | SMILES | Selectivity Index MAO-A/B (human recombinant MAO-B) | IC50 (human recombinant MAO-B) [µM] | IC50 (human recombinant MAO-A) [µM] | also measured
8 | COc1cc(-c2oc3cc(O)cc(O)c3c(=O)c2O)ccc1O [Isorhamnetin] |  |  |  | Selectivity Index MAO-A/B (human recombinant MAO B): 0.30; IC50 (human recombinant MAO B; human recombinant, kynuramine): 21.2 ± 4.99 µM; IC50 (human recombinant MAO A; human recombinant, kynuramine): 6.42 ± 7.69 µM
9 | COc1cc(O)c(C(=O)/C=C/c2ccc(OC(C)C)cc2)c(OC)c1 [Compound 2a, (E)-1-(2-Hydroxy-4,6-dimethoxyphenyl)-3-(4-isopropoxyphenyl)prop-2-en-1-one] | 2.4 | 0.049 ± 0.0035 | 0.117 ± 0.05 | 
10 | COc1ccc(-c2oc3cc(O)cc(O)c3c(=O)c2O)cc1 [4′-O-Methyl kaempferol] |  |  |  | IC50 (human recombinant MAO B; human recombinant, kynuramine): > 100 µM; IC50 (human recombinant MAO A; human recombinant, kynuramine): 1.35 ± 0.198 µM
11 | C#CCOc1ccc(/C=C/C(=O)c2c(O)cc(OC)cc2OC)cc1 [Compound 4a, (E)-1-(2-Hydroxy-4,6-dimethoxyphenyl)-3-(4-(prop-2-yn-1-yloxy)phenyl)prop-2-en-1-one] | 1.1 | 8.33 ± 0.787 | 9.42 ± 1.78 | 
12 | CCCOc1ccc(/C=C/C(=O)c2c(O)cc(OC)cc2OC)cc1 [Compound 1a, (E)-1-(2-Hydroxy-4,6-dimethoxyphenyl)-3-(4-propoxyphenyl)prop-2-en-1-one] | 1.3 | 0.4 ± 0.024 | 0.515 ± 0.024 | 
13 | COc1ccc(-c2oc3cc(O)cc(O)c3c(=O)c2OC)cc1 [3,4′-Di-O-methyl kaempferol] |  |  |  | IC50 (human recombinant MAO B; human recombinant, kynuramine): 9.67 ± 2.39 µM; IC50 (human recombinant MAO A; human recombinant, kynuramine): 0.033 ± 0.042 µM
14 | COc1cc(O)c(C(=O)/C=C/c2ccc(OCC(C)C)cc2)c(OC)c1 [Compound 3a, (E)-1-(2-Hydroxy-4,6-dimethoxyphenyl)-3-(4-isobutoxyphenyl)prop-2-en-1-one] | 1.9 | 0.22 ± 0.0211 | 0.42 ± 0.002 | 
15 | COc1cc(OC)c2c(=O)cc(-c3ccc(OCC(C)C)cc3)oc2c1 [Compound 3b, 2-(4-Isobutoxyphenyl)-5,7-dimethoxy-4H-chromen-4-one] | >13.8 | 7.23 ± 2.14 | > 100 | 
16 | COc1cc(O)c(C(=O)/C=C/c2ccc(Br)cc2)c(OC)c1 [Compound 6a, (E)-3-(4-Bromophenyl)-1-(2-hydroxy-4,6-dimethoxyphenyl)prop-2-en-1-one] |  | > 100 | 12.3 ± 0.249 | 
17 | C#CCOc1ccc(-c2cc(=O)c3c(OC)cc(OC)cc3o2)cc1 [Compound 4b, 5,7-Dimethoxy-2-(4-(prop-2-yn-1-yloxy)phenyl)-4H-chromen-4-one] | >1 | > 100 | > 100 | 
18 | COc1cc(OC)c2c(=O)cc(-c3ccc(OCC4CC4)cc3)oc2c1 [Compound 5b, 2-(4-(Cyclopropylmethoxy)phenyl)-5,7-dimethoxy-4H-chromen-4-one] | >4.4 | 22.8 ± 2.1 | > 100 | 
19 | COc1cc(O)c(C(=O)/C=C/c2ccc(OCC3CC3)cc2)c(OC)c1 [Compound 5a, (E)-3-(4-(Cyclopropylmethoxy)phenyl)-1-(2-hydroxy-4,6-dimethoxyphenyl)prop-2-en-1-one] | 1.4 | 0.9 ± 0.035 | 1.3 ± 0.09 | 
20 | COc1ccc(-c2cc(=O)c3c(O)cc(O)cc3o2)cc1O [Diosmetin] |  |  |  | Selectivity Index MAO-A/B (human recombinant MAO B): 3.63; IC50 (human recombinant MAO B; human recombinant, kynuramine): 1.58 ± 0.88 µM; IC50 (human recombinant MAO A; human recombinant, kynuramine): 5.74 ± 0.57 µM
21 | C#CCN[C@@H]1CCc2ccccc21 [Rasagiline] |  |  |  | nature of MAO-B inhibition (reversible/irreversible) (human recombinant MAO B): irreversible MAO-B inhibitors; selectivity towards MAO-B against MAO-A (human recombinant MAO B): 103 fold
22 | CCCOc1ccc(-c2cc(=O)c3c(OC)cc(OC)cc3o2)cc1 [Compound 1b, 5,7-Dimethoxy-2-(4-propoxyphenyl)-4H-chromen-4-one] | >58.8 | 1.7 ± 0.076 | > 100 | 
24 | COc1cc(O)c2c(=O)cc(-c3ccc(O)cc3)oc2c1 [Genkwanin] |  |  |  | Selectivity Index MAO-A/B (human recombinant MAO B): 0.40; IC50 (human recombinant MAO B; human recombinant, kynuramine): 0.35 ± 0.03 µM; IC50 (human recombinant MAO A; human recombinant, kynuramine): 0.14 ± 0.01 µM
25 | COc1cc(O)c2c(=O)cc(-c3ccc(O)c(OC)c3)oc2c1 [Vetulin] |  |  |  | Selectivity Index MAO-A/B (human recombinant MAO B): 42.70; IC50 (human recombinant MAO B; human recombinant, kynuramine): 0.44 ± 0.01 µM; IC50 (human recombinant MAO A; human recombinant, kynuramine): 18.8 ± 0.29 µM
26 | COc1cc(OC)c2c(=O)cc(-c3ccc(OC(C)C)cc3)oc2c1 [Compound 2b, 2-(4-Isopropoxyphenyl)-5,7-dimethoxy-4H-chromen-4-one] | >37.9 | 2.64 ± 0.088 | > 100 | 
27 | COc1ccc2c(c1)[nH]c1c(C)nccc12 [Harmine, reference compound] |  | 39 ± 1.41 |  | 

— PMC8533211, “Computationally Assisted Lead Optimization of Novel Potent and Selective MAO-B Inhibitors” (Biomedicines, 2021)
